The source of these data is paper PMC10204090, “TFBMiner: A User-Friendly Command Line Tool for the Rapid Mining of Transcription Factor-Based Biosensors” (ACS Synthetic Biology, 2023).

This assay deals with T1, P. hospita MdlR (C2L64_43720) (Paraburkholderia hospita, UniProt A0AAN1MPU5).
T1 construct: gene WQE_50835; full-length LysR-type regulator, gene codon-optimised for E. coli, expressed from Ptrc in E. coli NEB 5-alpha; rfp reporter under P. hospita PmdlC (PC2L64_43715)
T1 sequence (A0AAN1MPU5 1-297): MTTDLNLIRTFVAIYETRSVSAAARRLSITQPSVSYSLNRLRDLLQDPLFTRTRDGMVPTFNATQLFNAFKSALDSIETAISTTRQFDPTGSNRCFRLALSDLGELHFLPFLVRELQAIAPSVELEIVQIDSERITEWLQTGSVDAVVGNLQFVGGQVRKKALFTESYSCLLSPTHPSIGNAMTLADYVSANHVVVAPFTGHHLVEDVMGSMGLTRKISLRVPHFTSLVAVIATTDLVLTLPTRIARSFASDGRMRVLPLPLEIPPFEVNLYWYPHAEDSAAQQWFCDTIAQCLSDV
Nature of the assay: E. coli whole-cell RFP reporter assay, Hill fit. The note with it: read-out: Km ^a. It counts as cell-based. The text has this: E. coli whole-cell RFP reporter assay, Hill fit on P. hospita MdlR (C2L64_43720)
(In general: A reporter such as luciferase makes a cellular process visible.)

Consider `O=C(O)[C@@H](O)c1ccccc1` [compound 1, S-mandelate], for which the EC50 was found to be 167 µM.
As for `O=C(O)C(=O)c1ccccc1` [compound 4, phenylglyoxylate], the figure is 93 µM.
